Source: paper PMC11093748, “De novo identification of CD4^+ T cell epitopes” (Nature Methods, 2024)

Test system: TCR3
Assay: I-Ag7 SABR-II HIP library screen, enrichment score
Format: cell-based, mouse
Conditions: HIP library, TCR 3; TCR_Mean of 3 replicates minus PREDICTED_TCR (slope 0.926662, intercept 2.88051e-5)
Text: (§1) Given the predominance of HIP-reactive TCRs, we hypothesized that there may be other TCRs that respond to HIPs that were not encoded in our initial library configuration. While the initial I-Ag7 SABR-II library consisted of a number of HIPs, HIP formation is thought to be more widespread in pancreatic β-cells[52],[70]. Therefore, we sought to construct a defined, HIP-focused library to probe whether there were any undiscovered HIP-reactive TCRs that could be recognized by the clonally expanded TCR in our dataset. To test this, we utilized a published proteomic dataset, which predicted that several proteins that were highly expressed in secretory granules of β-cells may contribute to HIP formation. Using their predictions, we built a theoretical HIP library, in which all possible ‘left’ halves of the insulin C chain derived from natural cleavage products were fused to ‘right’ halves derived from secretory granule proteins (Fig. 5a). This 2,561-epitope library (12–25 amino acids per epitope) consisted of only HIPs and a small number of positive control epitopes (Supplementary Table 5). We screened the top three clonally expanded TCRs (TCR1, TCR2 and TCR3) against this library, as these TCRs had not been de-convoluted using the original library. […] To confirm that the HIP itself was important for the cognate interaction, we cloned single 14-mer epitopes into SABR-IIs consisting of seven amino acids of the left portion of the HIP and seven amino acids of the right portion of the HIP. In this way, no nine amino acids from either peptide sequence alone could occupy the binding pocket of I-Ag7, ensuring that TCR reactivity spanned the HIP junction. […] Of note, in all the epitopes that were tested, the ‘left’ half derived from insulin C was conserved, whereas the ‘right’ halves were derived from several other proteins (Fig. 5d). […] Moreover, the promiscuous binding of TCR3 to HIPs corroborates evidence from other NOD mouse-derived TCRs reacting to multiple HIPs[72].
(§2) To generate the I-Ag7 restricted SABR library, we combined all Immune Epitope Database epitopes with a published immunopeptidome generated by Wan et al.[51]. Sequences were filtered remove all post-translational modifications except deamidation and HIPs and trimmed between 9–25 amino acid lengths. For the insulin C HIP and HLA-DQ8 library, non-contiguous epitopes from Wiles et al.[66] as well as all Immune Epitope Database epitopes were combined to generate the epitope list. Epitope sequences were back-translated using the backtranslate_fast.py script.
For SABR library screens, 3 × 10^6 NFAT–GFP Jurkat cells expressing the SABR library were labeled with CellTrace Violet (BioLegend) according to the manufacturer’s protocol before incubation with 3 × 10^6 Jurkat cells expressing the TCR of interest. These mixtures were incubated in a six-well plate for 16–20 h. Cells were stained with anti-CD69-APC-Cy7 where indicated (BioLegend) and the top 1–2% of GFP^+CD69^+ cells were sorted for genomic DNA extraction, indexing and sequencing (see below). Multiplexed assays were scaled on a per-TCR basis (for example 3 × 10^6 for each of three TCRs against 9 × 10^6 library cells). For single SABR assays, unless otherwise defined, 5 × 10^5 SABR expressing NFAT–GFP Jurkat cells (or 5KC cells) were labeled with CellTrace Violet (BioLegend) according to the manufacturer’s protocol before incubation with 5 × 10^5 TCR-expressing Jurkat cells (or 5KC cells) in a round-bottom 96-well plate for 16–20 h. Cells were stained with anti-CD69-APC-Cy7 when indicated and acquired on the Attune NxT flow cytometer (Thermo Fisher Scientific). All flow analysis was performed using FlowJo (BD). For Daudi cell co-culture, 1 × 10^6 Jurkat cells expressing the TCR of interest were incubated with 1 × 10^6 Daudi cells expressing a SABR of interest for 3 days. On day 3, cells were labeled with anti-RT1B-PE and anti-Fas-APC-Cy7 before being acquired on the Attune NxT flow cytometer. […]

| Sequence | Enrichment score |
| --- | --- |
| DPQVEQLELGGSKDSDKGQQDGFE | 0.001805 |
| EDPQVEQLELGGAEDQELESLSAI | 0.001322 |
| EDPQVEQLELGGKADEFPDFYDSE | 0.001943 |
| EVEDPQVEQLELNAARDPNRESLD | 0.002309 |
| VEDPQVEQLELGSGKEVKGEEKGE | 0.002292 |

Same assay, conditions: I-Ag7 HIP library; one biological experiment

| Sequence | Enrichment score |
| --- | --- |
| EVEDEVEDPQVAQLELGGGPGAGD [theoretical HIP of the I-Ag7 HIP library] | 2.439e-5 |
| EVEDEVEDPQVEQLELGGSPGDLQ [theoretical HIP of the I-Ag7 HIP library] | 0.0001951 |
| EVEDFVKQHLCGPHLVEALYLVCG [theoretical HIP of the I-Ag7 HIP library] | -1.381e-6 |
| EVEDFVKQHLCGSHLVEALYLVCG [theoretical HIP of the I-Ag7 HIP library] | -0.0001794 |
| EVEDGIVDQCCTSICSLYQLENYC [theoretical HIP of the I-Ag7 HIP library] | 1.206e-5 |

Test system: GSE.20D11 TCR
Assay: HLA-DQ8 SABR-II (+ HLA-A2.1 SABR) library screen, enrichment score
Format: cell-based, human
Conditions: ES = TCRObserved - TCRPredicted; TCRPredicted = LIBObserved x SLOPE + INTERCEPT; SLOPE 1.10224, INTERCEPT -1.65707e-5
Text: To test whether HLA-DQ8 SABR-II could be used for antigen discovery, we curated a list of insulin B, insulin C and HIP epitopes published by Wiles et al.[58] and cloned them into the DQ8 SABR-II backbone using the same pooled cloning strategy as the I-Ag7 SABR-II library (Supplementary Table 2). Furthermore, we combined SABR-I (the HLA-A*0201 library reported in our previous work[27]) and SABR-II libraries at a cellular level and screened against the GSE.20D11 TCR.
as §2
(§3) For SABR library screens, 3 × 10^6 NFAT–GFP Jurkat cells expressing the SABR library were labeled with CellTrace Violet (BioLegend) according to the manufacturer’s protocol before incubation with 3 × 10^6 Jurkat cells expressing the TCR of interest. These mixtures were incubated in a six-well plate for 16–20 h. Cells were stained with anti-CD69-APC-Cy7 where indicated (BioLegend) and the top 1–2% of GFP^+CD69^+ cells were sorted for genomic DNA extraction, indexing and sequencing (see below). Multiplexed assays were scaled on a per-TCR basis (for example 3 × 10^6 for each of three TCRs against 9 × 10^6 library cells). For single SABR assays, unless otherwise defined, 5 × 10^5 SABR expressing NFAT–GFP Jurkat cells (or 5KC cells) were labeled with CellTrace Violet (BioLegend) according to the manufacturer’s protocol before incubation with 5 × 10^5 TCR-expressing Jurkat cells (or 5KC cells) in a round-bottom 96-well plate for 16–20 h. Cells were stained with anti-CD69-APC-Cy7 when indicated and acquired on the Attune NxT flow cytometer (Thermo Fisher Scientific). All flow analysis was performed using FlowJo (BD). For Daudi cell co-culture, 1 × 10^6 Jurkat cells expressing the TCR of interest were incubated with 1 × 10^6 Daudi cells expressing a SABR of interest for 3 days. On day 3, cells were labeled with anti-RT1B-PE and anti-Fas-APC-Cy7 before being acquired on the Attune NxT flow cytometer.
Genomic DNA was extracted from sorted cells immediately after sorting, using the PureLink genomic DNA extraction kit (Life Technologies). The integrated SABR vectors were amplified with KOD polymerase (Millipore) and two rounds of amplification. In the first round, IDT-UD-SABR-C2-F and IDT-UD-SABR-C2-R primers were used to amplify the epitope. In the second round, UDI0001-R and UDI0001-F primers (representative of index 1) were used to add Illumina unique dual indexes (UDIs) to the amplicons. A different UDI was used for each sample. The reactions were pooled and purified with the NucleoSpin gel and PCR purification kit (Takara). The purified PCR product was checked before sequencing using 2% agarose gel and subjected to sequencing on a HiSeq4000 (Fulgent Genetics). Unaligned reads generated by the sequencer were stored in FASTQ files. FASTQ files were concatenated to generate one file for read1 and read2 each. The sequences were demultiplexed into individual indexes using demultiplex_dual.py. Epitopes were extracted and scored using epitope_extract_fastq_v1.1.py and merge_counts_split_v2.1.py. The ES was calculated using Microsoft Excel (Microsoft) workbooks.

| Sequence | Enrichment score |
| --- | --- |
| AAPSVFIFPPSDEQLK | -0.0003017 |
| AASKERSGVSL | 3.541e-5 |
| APKRPPSAF | 2.7496e-5 |
| CDGERPTLAFLQDVM | -0.0002437 |

Same assay, conditions: HLA-A2.1 and HLA-DQ8 SABR libraries screened simultaneously, reads mapped to DQ8 library; one biological experiment

| Sequence | Enrichment score |
| --- | --- |
| AAPSVFIFPPSDEQLK | -0.0003017 |
| AASKERSGVSL | 3.541e-5 |
| APKRPPSAF | 2.7496e-5 |
| CDGERPTLAFLQDVM | -0.0002437 |

Test system: Jurkat cells, No TCR
Assay: Single SABR-II co-incubation, background without TCR
Format: cell-based, human
Conditions: No TCR; Fig 5C; technical replicate 1
Text: (§4) We performed systematic screening of the cloned TCRs against the I-Ag7 SABR-II library. Several TCRs along with a positive control (such as BDC2.5 or 4-8Ins) were screened individually against the library for each sort (Extended Data Fig. 6a and Supplementary Table 4). High- and low-confidence ES zones for each screened TCR were defined by the ES values of the control TCR’s cognate epitopes. For all putative cognate epitopes, single SABR-IIs were constructed, expressed in NFAT–GFP Jurkat cells and used for co-incubation with the corresponding TCRs. Co-incubation assays that yielded a GFP signal higher than that obtained in assays with no TCR were determined to be positive and the epitopes deemed true cognate ligands (Extended Data Fig. 6b,c). Using this strategy, we obtained epitopes in the high-confidence zone for eight TCRs (Fig. 3a and Extended Data Fig. 6b,d). Among numerous altered peptide ligands (APLs), these TCRs recognized the physiological InsC-ChgA HIP ([…] and analogs, recognized by TCR5, TCR6B, TCR9 and TCR34), InsC-Iapp HIP ([…] and analogs, recognized by TCR4 and TCR15) and InsB9:23 ([…] and analogs recognized by TCR24 and TCR37). These cognate high-confidence hits were validated using single SABR-II co-incubation assays (Fig. 3b and Extended Data Fig. 7a). Further validations using in vitro mouse interleukin-2 (mIL-2) secretion by TCR-expressing 5KC reporter cells[13] or CD25 expression by TCR-expressing splenic CD4^+ T cells upon stimulation with the cognate epitope were performed (Extended Data Fig. 7b,c). Furthermore, low-confidence hits were called for ten TCRs and tested in co-incubation assays.
as §3

| Sequence | %GFP+CD69+ cells of SABR-NFAT-GFP-Jurkat cells |
| --- | --- |
| EQLELGGKADEFPD [14-mer hybrid insulin peptide spanning the fusion junction, TCR3 hit] | 11.2% |
| QLELGGSKDSDKGQ [14-mer hybrid insulin peptide spanning the fusion junction, TCR3 hit] | 9.03% |
| QVEQLELNAARDPN [14-mer hybrid insulin peptide spanning the fusion junction, TCR3 hit] | 2.19% |
| VEQLELGAKQEEKE [14-mer hybrid insulin peptide spanning the fusion junction, TCR3 hit] | 1.47% |
| VEQLELGSGKEVKG [14-mer hybrid insulin peptide spanning the fusion junction, TCR3 hit] | 3.79% |

Same assay, conditions: No TCR; Fig 5C; technical replicate 2

| Sequence | %GFP+CD69+ cells of SABR-NFAT-GFP-Jurkat cells |
| --- | --- |
| EQLELGGKADEFPD [14-mer hybrid insulin peptide spanning the fusion junction, TCR3 hit] | 12.4% |
| QLELGGSKDSDKGQ [14-mer hybrid insulin peptide spanning the fusion junction, TCR3 hit] | 10.7% |
| QVEQLELNAARDPN [14-mer hybrid insulin peptide spanning the fusion junction, TCR3 hit] | 2.2% |
| VEQLELGAKQEEKE [14-mer hybrid insulin peptide spanning the fusion junction, TCR3 hit] | 1.55% |
| VEQLELGSGKEVKG [14-mer hybrid insulin peptide spanning the fusion junction, TCR3 hit] | 4% |

Test system: TCR3
Assay: Single SABR-II co-incubation, NFAT-GFP Jurkat
Format: cell-based, mouse
Conditions: TCR 3; Fig 5C; technical replicate 1
Text: as §1, §3

| Sequence | %GFP+CD69+ cells of SABR-NFAT-GFP-Jurkat cells |
| --- | --- |
| EQLELGGKADEFPD [14-mer hybrid insulin peptide spanning the fusion junction, TCR3 hit] | 38.6% |
| QLELGGSKDSDKGQ [14-mer hybrid insulin peptide spanning the fusion junction, TCR3 hit] | 10.5% |
| QVEQLELNAARDPN [14-mer hybrid insulin peptide spanning the fusion junction, TCR3 hit] | 66.4% |
| VEQLELGAKQEEKE [14-mer hybrid insulin peptide spanning the fusion junction, TCR3 hit] | 80.7% |
| VEQLELGSGKEVKG [14-mer hybrid insulin peptide spanning the fusion junction, TCR3 hit] | 78.8% |

Same assay, conditions: TCR 3; Fig 5C; technical replicate 2

| Sequence | %GFP+CD69+ cells of SABR-NFAT-GFP-Jurkat cells |
| --- | --- |
| EQLELGGKADEFPD [14-mer hybrid insulin peptide spanning the fusion junction, TCR3 hit] | 37.2% |
| QLELGGSKDSDKGQ [14-mer hybrid insulin peptide spanning the fusion junction, TCR3 hit] | 9.28% |
| QVEQLELNAARDPN [14-mer hybrid insulin peptide spanning the fusion junction, TCR3 hit] | 66.1% |
| VEQLELGAKQEEKE [14-mer hybrid insulin peptide spanning the fusion junction, TCR3 hit] | 80.6% |
| VEQLELGSGKEVKG [14-mer hybrid insulin peptide spanning the fusion junction, TCR3 hit] | 77.6% |

Test system: TCR4
Assay: Single SABR-II co-incubation, NFAT-GFP Jurkat
Format: cell-based, mouse
Conditions: TCR 4; Fig 5C; technical replicate 1
Text: as §4, §3

| Sequence | %GFP+CD69+ cells of SABR-NFAT-GFP-Jurkat cells |
| --- | --- |
| EQLELGGKADEFPD [14-mer hybrid insulin peptide spanning the fusion junction, TCR3 hit] | 11.4% |
| QLELGGSKDSDKGQ [14-mer hybrid insulin peptide spanning the fusion junction, TCR3 hit] | 9.32% |
| QVEQLELNAARDPN [14-mer hybrid insulin peptide spanning the fusion junction, TCR3 hit] | 2.09% |
| VEQLELGAKQEEKE [14-mer hybrid insulin peptide spanning the fusion junction, TCR3 hit] | 1.47% |
| VEQLELGSGKEVKG [14-mer hybrid insulin peptide spanning the fusion junction, TCR3 hit] | 4.13% |

Same assay, conditions: TCR 4; Fig 5C; technical replicate 2

| Sequence | %GFP+CD69+ cells of SABR-NFAT-GFP-Jurkat cells |
| --- | --- |
| EQLELGGKADEFPD [14-mer hybrid insulin peptide spanning the fusion junction, TCR3 hit] | 11.5% |
| QLELGGSKDSDKGQ [14-mer hybrid insulin peptide spanning the fusion junction, TCR3 hit] | 9.4% |
| QVEQLELNAARDPN [14-mer hybrid insulin peptide spanning the fusion junction, TCR3 hit] | 2.09% |
| VEQLELGAKQEEKE [14-mer hybrid insulin peptide spanning the fusion junction, TCR3 hit] | 1.36% |
| VEQLELGSGKEVKG [14-mer hybrid insulin peptide spanning the fusion junction, TCR3 hit] | 4.17% |
